The supplement of paper PMC10331698
± gives the standard deviation of the averaged measurements.

Experiments:
Test in all cases: level (log10 ratio to DMSO vehicle control); higher = higher biomarker level / cell amount than vehicle control
Details in all cases: in DMSO
Pentafluoropropionamide = compound: NC(=O)C(F)(F)C(F)(F)F [Pentafluoropropionamide]
Experimental: (§1)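 BioMAP Diversity Plus panel of 12 human primary cell co-culture systems (3C, 4H, LPS, SAg, BT, BF4T, BE3C, CASM3C, HDF3CGF, KF3CT, MyoF, Mphg). Compounds were added 1 h before stimulation and left for 24 h (MyoF 48 h; BT 72 h for soluble read-outs or 6 d for IgG). Biomarkers were read by ELISA, cytotoxicity by SRB, PBMC viability and proliferation by Alamar Blue. Each well value was divided by the mean of 8 DMSO control wells on the same plate and log10 transformed; duplicate blinded samples were tested at 4 concentrations.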

Perfluorodecanoic acid = compound: O=C(O)C(F)(F)C(F)(F)C(F)(F)C(F)(F)C(F)(F)C(F)(F)C(F)(F)C(F)(F)C(F)(F)F [Perfluorodecanoic acid]
Experimental: as §1

[1] = compound: CCN(CCO)S(=O)(=O)C(F)(F)C(F)(F)C(F)(F)C(F)(F)C(F)(F)C(F)(F)C(F)(F)C(F)(F)F [N-Ethyl-N-(2-hydroxyethyl)perfluorooctanesulfonamide]
Experimental: as §1

Perfluoro-1-iodohexane = compound: FC(F)(F)C(F)(F)C(F)(F)C(F)(F)C(F)(F)C(F)(F)I [Perfluoro-1-iodohexane]
Experimental: as §1

[2] = compound: NCC(F)(F)C(F)(F)C(F)(F)C(F)(F)C(F)(F)C(F)(F)C(F)(F)F [1H,1H-Perfluorooctylamine]
Experimental: as §1

[3] = compound: O=C(O)C(F)(F)C(F)(F)C(F)(F)C(F)(F)C(F)(F)C(F)(F)C(F)(F)C(F)F [9-H-Perfluorononanoic acid]
Experimental: as §1

[4] = compound: O=C(O)C(F)(F)OC(F)(F)C(F)(F)OC(F)(F)F [Perfluoro-3,6-dioxaheptanoic acid]
Experimental: as §1

Test System | level (log10) (Pentafluoropropionamide; 6700 nM) | level (log10) (Pentafluoropropionamide; 20000 nM) | level (log10) (Pentafluoropropionamide; 60000 nM) | level (log10) (Perfluorodecanoic acid; 6700 nM) | level (log10) (Perfluorodecanoic acid; 20000 nM) | level (log10) ([1]; 6700 nM) | level (log10) ([1]; 20000 nM) | level (log10) (Perfluoro-1-iodohexane; 6700 nM) | level (log10) (Perfluoro-1-iodohexane; 20000 nM) | level (log10) (Perfluoro-1-iodohexane; 60000 nM) | level (log10) ([2]; 6700 nM) | level (log10) ([2]; 20000 nM) | level (log10) ([2]; 60000 nM) | level (log10) ([3]; 6700 nM) | level (log10) ([3]; 20000 nM) | level (log10) ([3]; 60000 nM) | level (log10) ([4]; 6700 nM) | level (log10) ([4]; 20000 nM) | level (log10) ([4]; 60000 nM)
MyoF:Collagen III | 0.002 ± 0.031 | -0.005 ± 0.0014 | -0.007 ± 0.0057 | -0.028 ± 0.03 | -0.36 ± 0.066 | -0.0045 ± 0.022 | -0.228 ± 0.17 | -0.0225 ± 0.0064 | -0.039 ± 0.0057 | -0.132 ± 0.036 | -0.007 ± 0.0057 | 0.003 ± 0.014 | 0.01 | -0.002 ± 0.0085 | -0.003 ± 0.0042 | -0.026 ± 0.018 | -0.025 ± 0.0014 | -0.001 ± 0.017 | 0.027 ± 0.038
MyoF:CD106/VCAM-1 | -0.013 ± 0.017 | 0.006 ± 0.028 | -0.0075 ± 0.0021 | -0.019 ± 0.0071 | -0.084 ± 0.02 | -0.0675 ± 0.0064 | -0.534 ± 0.053 | -0.031 ± 0.016 | -0.102 ± 0.064 | -0.337 ± 0.03 | -0.007 ± 0.0085 | -0.0295 ± 0.011 | 0.002 ± 0.013 | -0.015 ± 0.02 | -0.0135 ± 0.005 | -0.0125 ± 0.025 | 0.001 ± 0.048 | -0.0175 ± 0.028 | -0.021 ± 0.051
3C:CD106/VCAM-1 | -0.0215 ± 0.013 | -0.009 ± 0.027 | -0.0105 ± 0.005 | -0.0005 ± 0.012 | -0.001 ± 0.021 | 0.0005 ± 0.005 | 0.005 ± 0.0085 | 0.003 ± 0.024 | 0.0075 ± 0.018 | 0 ± 0.047 | -0.0035 ± 0.00071 | -0.016 ± 0.0057 | -0.005 ± 0.0099 | -0.025 ± 0.016 | -0.018 ± 0.035 | -0.0185 ± 0.04 | -0.0185 ± 0.019 | -0.008 ± 0.0071 | -0.001 ± 0.018
BE3C:MMP-1 | 0.0275 ± 0.015 | 0.0185 ± 0.028 | 0.0665 ± 0.037 | 0.211 ± 0.041 | -0.4875 ± 0.0035 | 0.255 ± 0.03 | 0.328 ± 0.0071 | -0.003 ± 0.0085 | -0.0065 ± 0.011 | 0.043 ± 0.016 | -0.0305 ± 0.042 | -0.0235 ± 0.026 | -0.001 ± 0.04 | 0.043 ± 0.045 | 0.061 ± 0.0028 | 0.204 ± 0.047 | -0.042 ± 0.048 | -0.0015 ± 0.057 | 0.0145 ± 0.037
HDF3CGF:PAI-I | 0.0125 ± 0.04 | -0.011 ± 0.044 | 0 ± 0.014 | 0.15 ± 0.051 | -0.107 ± 0.1 | -0.0695 ± 0.061 | -0.211 ± 0.08 | 0.017 ± 0.011 | 0.005 ± 0.031 | -0.041 ± 0.014 | 0.008 ± 0.033 | -0.018 ± 0.0042 | -0.003 ± 0.023 | -0.0135 ± 0.0092 | 0.004 ± 0.0028 | 0.0175 ± 0.023 | -0.0525 ± 0.00071 | 0.0225 ± 0.037 | 0.06
CASM3C:CD142/Tissue Factor | -0.0025 ± 0.022 | -0.0095 ± 0.018 | -0.0295 ± 0.026 | 0.008 ± 0.0042 | -0.0055 ± 0.012 | -0.0325 ± 0.012 | 0.0145 ± 0.022 | -0.009 ± 0.013 | -0.018 ± 0.0042 | -0.031 | -0.018 ± 0.0014 | -0.0135 ± 0.015 | 0.021 ± 0.03 | -0.0025 ± 0.0078 | -0.012 ± 0.028 | 0.006 ± 0.017 | -0.049 ± 0.089 | -0.0195 ± 0.097 | 0.014 ± 0.088
3C:CD62E/E-Selectin | -0.0075 ± 0.0078 | -0.005 ± 0.011 | 0.005 ± 0.018 | -0.004 ± 0.0085 | 0.0025 ± 0.019 | 0.0685 ± 0.012 | 0.068 ± 0.0057 | -0.0025 ± 0.00071 | -0.0165 ± 0.0035 | -0.0025 ± 0.029 | -0.0045 ± 0.047 | 0.022 ± 0.02 | 0.0335 ± 0.011 | -0.009 ± 0.014 | -0.0145 ± 0.0092 | 0.006 ± 0.025 | -0.0045 ± 0.016 | -0.02 ± 0.017 | 0.01 ± 0.0071
CASM3C:HLA-DR | -0.005 ± 0.0042 | 0.0045 ± 0.0092 | -0.001 ± 0.018 | 0 | 0.006 ± 0.014 | -0.002 ± 0.024 | -0.111 ± 0.013 | 0.0075 ± 0.0092 | 0.004 ± 0.0057 | 0.0095 ± 0.022 | -0.01 ± 0.0028 | -0.0085 ± 0.032 | 0.029 ± 0.0042 | -0.01 ± 0.0071 | -0.0145 ± 0.0092 | 0.0025 ± 0.012 | -0.0355 ± 0.069 | -0.0385 ± 0.074 | -0.047 ± 0.057
CASM3C:LDLR | 0.003 ± 0.042 | 0.0045 ± 0.011 | 0.0295 ± 0.015 | -0.0045 ± 0.0078 | 0.0105 ± 0.03 | -0.076 ± 0.0057 | -0.223 ± 0.021 | -0.008 ± 0.0057 | 0.0155 ± 0.016 | 0.005 ± 0.028 | -0.0295 ± 0.005 | -0.018 ± 0.023 | 0.007 ± 0.0042 | -0.003 ± 0.018 | -0.005 ± 0.0042 | 0.009 ± 0.024 | -0.0145 ± 0.033 | -0.013 ± 0.037 | -0.0015 ± 0.005
KF3CT:CXCL8/IL-8 | -0.005 ± 0.0042 | -0.0105 ± 0.005 | 0.0215 ± 0.012 | -0.0225 ± 0.011 | -0.0035 ± 0.018 | -0.0975 ± 0.012 | -0.0935 ± 0.0064 | -0.0125 ± 0.016 | 0.003 ± 0.0014 | 0 ± 0.011 | -0.0205 ± 0.035 | -0.0295 ± 0.029 | -0.014 ± 0.0085 | 0.0035 ± 0.015 | 0.0085 ± 0.0078 | 0.008 ± 0.0071 | -0.0075 ± 0.015 | 0.005 ± 0.011 | 0.0515 ± 0.033
KF3CT:SRB | -0.006 ± 0.0014 | -0.0025 ± 0.0035 | -0.007 ± 0.023 | -0.0325 ± 0.005 | -0.036 ± 0.0085 | -0.015 | -0.0305 ± 0.0092 | -0.0075 ± 0.00071 | -0.0065 ± 0.00071 | 0 ± 0.011 | -0.01 ± 0.011 | -0.0065 ± 0.013 | 0.0065 ± 0.035 | -0.0175 ± 0.005 | -0.019 ± 0.0014 | -0.032 ± 0.0042 | 0.0035 ± 0.0021 | -0.0015 ± 0.0021 | -0.0045 ± 0.005
CASM3C:SRB | -0.002 ± 0.0057 | 0 ± 0.0085 | -0.0045 ± 0.00071 | 0.0055 ± 0.0064 | 0.0055 ± 0.0064 | -0.0265 ± 0.0078 | -0.097 ± 0.014 | 0.0035 ± 0.013 | 0.0015 ± 0.0021 | -0.0015 ± 0.016 | -0.002 ± 0.0028 | -0.001 ± 0.013 | 0.0035 ± 0.018 | 0.0045 ± 0.005 | 0.0035 ± 0.0035 | -0.001 ± 0.0057 | -0.0065 ± 0.00071 | -0.002 ± 0.0028 | -0.0005 ± 0.0035
BE3C:Keratin 8/18 | -0.0185 ± 0.0021 | -0.0185 ± 0.005 | -0.0185 ± 0.018 | 0.0035 ± 0.029 | -0.337 ± 0.0035 | 0 ± 0.014 | -0.007 ± 0.014 | -0.007 ± 0.037 | -0.0105 ± 0.0078 | 0.005 ± 0.024 | -0.009 ± 0.0071 | -0.024 ± 0.0099 | -0.0005 ± 0.0078 | -0.006 ± 0.0085 | 0.005 ± 0.0042 | -0.012 ± 0.018 | -0.033 ± 0.041 | -0.0085 ± 0.022 | -0.03 ± 0.017
